The results in this text go back to patent US9056874B2, “Complement pathway modulators and uses thereof” (NOVARTIS AG, priority 2012, dated 2015).

As usually defined, the IC50 is the concentration that gives 50% inhibition.

For the test, the target named is factor B (Homo sapiens, UniProt P00751). The experiment in a line: factor B inhibition assay of Biological Example 1. It counts as biochemical. Set-up: CVF-Bb complex prepared from purified cobra venom factor (1 μM), recombinant human complement factor B; made in house; host or cells: drosophila cells (factor B); E. coli (factor D used to form the complex). Conditions: IC50 (nM), assay of Biological Example 1 (Table 1).
Chain of factor B (P00751 260-764 limits assumed): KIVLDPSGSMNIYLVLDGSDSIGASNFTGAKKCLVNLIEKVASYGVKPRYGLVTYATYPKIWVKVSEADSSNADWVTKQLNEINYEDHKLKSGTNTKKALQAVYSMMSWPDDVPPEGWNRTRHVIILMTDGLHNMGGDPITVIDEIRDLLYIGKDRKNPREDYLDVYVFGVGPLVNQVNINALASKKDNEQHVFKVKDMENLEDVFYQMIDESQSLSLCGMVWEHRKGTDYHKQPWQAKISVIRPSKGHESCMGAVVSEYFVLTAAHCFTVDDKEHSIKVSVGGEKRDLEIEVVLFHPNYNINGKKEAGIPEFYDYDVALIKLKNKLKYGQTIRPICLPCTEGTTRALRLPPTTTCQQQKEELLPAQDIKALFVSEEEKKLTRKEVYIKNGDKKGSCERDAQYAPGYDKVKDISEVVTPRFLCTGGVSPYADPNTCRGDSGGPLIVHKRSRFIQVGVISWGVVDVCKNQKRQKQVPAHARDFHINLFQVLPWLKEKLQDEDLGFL
Chain of factor B (Q91132 23-649 partner limits assumed): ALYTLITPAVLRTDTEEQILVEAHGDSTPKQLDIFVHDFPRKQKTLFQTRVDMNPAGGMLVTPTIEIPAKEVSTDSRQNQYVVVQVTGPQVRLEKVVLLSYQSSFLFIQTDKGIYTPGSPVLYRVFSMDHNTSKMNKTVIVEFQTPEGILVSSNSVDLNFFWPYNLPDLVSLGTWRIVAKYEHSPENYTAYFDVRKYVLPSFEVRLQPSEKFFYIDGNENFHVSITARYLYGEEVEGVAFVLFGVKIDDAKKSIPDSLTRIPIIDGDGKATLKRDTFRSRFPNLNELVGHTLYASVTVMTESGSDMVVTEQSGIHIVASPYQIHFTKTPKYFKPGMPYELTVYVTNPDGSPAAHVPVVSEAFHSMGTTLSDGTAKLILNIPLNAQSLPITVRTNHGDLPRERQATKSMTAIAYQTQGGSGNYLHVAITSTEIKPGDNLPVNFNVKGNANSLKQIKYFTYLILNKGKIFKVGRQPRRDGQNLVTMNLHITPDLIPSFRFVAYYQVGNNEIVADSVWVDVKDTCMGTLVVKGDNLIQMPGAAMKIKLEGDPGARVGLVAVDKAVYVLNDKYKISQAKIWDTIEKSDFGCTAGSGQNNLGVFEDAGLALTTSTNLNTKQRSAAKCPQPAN
Chain of factor B (Q91132 733-984 partner limits assumed): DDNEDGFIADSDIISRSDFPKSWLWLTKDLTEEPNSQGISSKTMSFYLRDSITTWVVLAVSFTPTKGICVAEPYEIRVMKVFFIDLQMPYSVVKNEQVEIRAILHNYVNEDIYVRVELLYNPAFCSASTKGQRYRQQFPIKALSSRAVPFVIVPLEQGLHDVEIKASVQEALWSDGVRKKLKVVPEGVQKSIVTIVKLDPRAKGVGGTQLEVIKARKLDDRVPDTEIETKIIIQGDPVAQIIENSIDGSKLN
Chain of factor B (Q91132 1264-1642 partner limits assumed): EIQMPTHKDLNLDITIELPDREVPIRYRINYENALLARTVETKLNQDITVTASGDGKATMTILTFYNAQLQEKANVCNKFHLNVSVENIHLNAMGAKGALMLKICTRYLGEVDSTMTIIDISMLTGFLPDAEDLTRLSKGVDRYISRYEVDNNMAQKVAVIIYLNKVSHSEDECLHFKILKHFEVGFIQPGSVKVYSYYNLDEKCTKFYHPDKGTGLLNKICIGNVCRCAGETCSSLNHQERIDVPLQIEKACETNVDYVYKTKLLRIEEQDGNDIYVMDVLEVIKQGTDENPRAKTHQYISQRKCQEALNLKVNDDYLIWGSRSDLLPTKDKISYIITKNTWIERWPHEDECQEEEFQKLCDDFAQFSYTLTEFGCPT
For the molecule `Cc1cc(S(C)(=O)=O)c(C(O)(c2nc3cc(C#N)ccc3[nH]2)C(F)(F)F)c2cc[nH]c12` (single isomer, unassigned; (-)) [14-D b) (−), (−)-2-(2,2,2-trifluoro-1-hydroxy-1-(7-methyl-5-(methylsulfonyl)-1H-indol-4-yl)ethyl)-1H-benzo[d]imidazole-5-carbonitrile], the IC50 came out at 270 nM. `COC(c1nc2cc(C#N)ccc2[nH]1)(c1c(S(C)(=O)=O)cc(C)c2[nH]ccc12)C(F)(F)F` (single isomer, unassigned; (-)) [15-D b) (−), (−)-2-(2,2,2-trifluoro-1-methoxy-1-(7-methyl-5-(methylsulfonyl)-1H-indol-4-yl)ethyl)-1H-benzo[d]imidazole-5-carbonitrile]: the half-maximal inhibitory concentration (IC50) came to 680 nM. Turning to `CNC(c1nc2cc(C#N)ccc2[nH]1)(c1c(S(C)(=O)=O)cc(C)c2[nH]ccc12)C(F)(F)F` (single isomer, unassigned; (-)) [16-B b) (−), (−)-2-(2,2,2-trifluoro-1-(7-methyl-5-(methylsulfonyl)-1H-indol-4-yl)-1-(methylamino)ethyl)-1H-benzo[d]imidazole-5-carbonitrile], the IC50 is 180 nM. As to `Cc1cc(S(C)(=O)=O)c(C(N)(c2nc3cc(C#N)ccc3[nH]2)C(F)(F)F)c2cc[nH]c12` (single isomer, unassigned; (-)) [17-B b) (−), (−)-2-(1-amino-2,2,2-trifluoro-1-(7-methyl-5-(methylsulfonyl)-1H-indol-4-yl)ethyl)-1H-benzo[d]imidazole-5-carbonitrile], the half-maximal inhibitory concentration (IC50) was determined as 1330 nM. In the case of `COc1cc(C)c2[nH]ccc2c1C(O)c1nc2cc(C#N)ccc2[nH]1` (single isomer, unassigned; (-)) [24-B b) (−), (−)-2-(hydroxy(5-methoxy-7-methyl-1H-indol-4-yl)methyl)-1H-benzo[d]imidazole-5-carbonitrile], the IC50 came out at 90 nM.

On to `CCOc1cc(C)c2[nH]ccc2c1C(O)c1nc2cc(C#N)ccc2[nH]1` (single isomer, unassigned; (-)) [24-C b) (−), (−)-2-((5-ethoxy-7-methyl-1H-indol-4-yl)(hydroxy)methyl)-1H-benzo[d]imidazole-5-carbonitrile], for which the IC50 is 600 nM. Consider `Cc1cc(OC(C)C)c(C(O)c2nc3cc(C#N)ccc3[nH]2)c2cc[nH]c12` (single isomer, unassigned; (-)) [24-D b) (−), (−)-2-(hydroxy(5-isopropoxy-7-methyl-1H-indol-4-yl)methyl)-1H-benzo[d]imidazole-5-carbonitrile], for which the IC50 was 490 nM. The same measure for `CCOc1cc(C)c2[nH]ccc2c1C(C)(O)c1nc2cc(C#N)ccc2[nH]1` (single isomer, unassigned; (-)) [26-D b) (−), (−)-2-(1-(5-ethoxy-7-methyl-1H-indol-4-yl)-1-hydroxyethyl)-1H-benzo[d]imidazole-5-carbonitrile]: 440 nM; for `Cc1cc(OC(C)C)c(C(C)(O)c2nc3cc(C#N)ccc3[nH]2)c2cc[nH]c12` (single isomer, unassigned; (-)) [26-E b) (−), (−)-2-(1-hydroxy-1-(5-isopropoxy-7-methyl-1H-indol-4-yl)ethyl)-1H-benzo[d]imidazole-5-carbonitrile]: 170 nM; for `CCC(O)(c1nc2cc(C#N)ccc2[nH]1)c1c(OC(C)C)cc(C)c2[nH]ccc12` (single isomer, unassigned; (-)) [26-F b) (−), (−)-2-(1-hydroxy-1-(5-isopropoxy-7-methyl-1H-indol-4-yl)propyl)-1H-benzo[d]imidazole-5-carbonitrile]: 380 nM.

Consider `Cc1cc(OCC2CC2)c(C(C)(O)c2nc3cc(C#N)ccc3[nH]2)c2cc[nH]c12` (single isomer, unassigned; (-)) [26-G b) (−), (−)-2-(1-(5-(cyclopropylmethoxy)-7-methyl-1H-indol-4-yl)-1-hydroxyethyl)-1H-benzo[d]imidazole-5-carbonitrile], for which the IC50 is 4380 nM. In the case of `[2H]C([2H])([2H])C(OC)(c1nc2cc(C#N)ccc2[nH]1)c1c(OC)cc(C)c2[nH]ccc12` (single isomer, unassigned; (-)) [27-E b) (−), (−)-2-((^2H3)methyl(methoxy)(5-methoxy-7-methyl-1H-indol-4-yl)methyl)-1H-benzo[d]imidazole-5-carbonitrile], the half-maximal inhibitory concentration (IC50) was determined as 4 nM. As to `[2H]C([2H])([2H])OC(C)(c1nc2cc(C#N)ccc2[nH]1)c1c(OC)cc(C)c2[nH]ccc12` (single isomer, unassigned; (-)) [27-F b) (−), (−)-2-(1-(^2H3)methoxy-1-(5-methoxy-7-methyl-1H-indol-4-yl)ethyl)-1H-benzo[d]imidazole-5-carbonitrile], the IC50 was 9 nM.

`COc1cc(C)c2[nH]cc(Cl)c2c1C(O)c1nc2cc(C#N)ccc2[nH]1` (single isomer, unassigned; (-)) [28-C b) (−), (−)-2-((3-chloro-5-methoxy-7-methyl-1H-indol-4-yl)(hydroxy)methyl)-1H-benzo[d]imidazole-5-carbonitrile]: the IC50 is 140 nM. `COc1cc(C)c2[nH]ccc2c1C(O)(c1nc2cc(C#N)ccc2[nH]1)C(F)(F)F` (single isomer, unassigned; (-)) [33-B b) (−), (−)-2-(2,2,2-trifluoro-1-hydroxy-1-(5-methoxy-7-methyl-1H-indol-4-yl)ethyl)-1H-benzo[d]imidazole-5-carbonitrile]: the IC50 is 50 nM. Regarding `COc1cc(C)c2[nH]ccc2c1C(OC)(c1nc2cc(C#N)ccc2[nH]1)C(F)(F)F` (single isomer, unassigned; (-)) [34-B b) (−), (−)-2-(2,2,2-trifluoro-1-methoxy-1-(5-methoxy-7-methyl-1H-indol-4-yl)ethyl)-1H-benzo[d]imidazole-5-carbonitrile], the IC50 was 10 nM. In the case of `COc1cc(C)c2[nH]ccc2c1C(OCC(=O)O)(c1nc2cc(C#N)ccc2[nH]1)C(F)(F)F` (single isomer, unassigned; (-)) [35-C (−), (−)-2-(1-(5-cyano-1H-benzo[d]imidazol-2-yl)-2,2,2-trifluoro-1-(5-methoxy-7-methyl-1H-indol-4-yl)ethoxy)acetic acid], the 50% inhibitory concentration (IC50) amounted to 40 nM. Consider `CNC(c1nc2cc(C#N)ccc2[nH]1)(c1c(OC)cc(C)c2[nH]ccc12)C(F)(F)F` (single isomer, unassigned; (-)) [38-B b) (−), (−)-2-(2,2,2-trifluoro-1-(5-methoxy-7-methyl-1H-indol-4-yl)-1-(methylamino)ethyl)-1H-benzo[d]imidazole-5-carbonitrile], for which the concentration for half-maximal inhibition (IC50) was determined as 8 nM. The same measure for `CNC(C)(c1nc2cc(C#N)ccc2[nH]1)c1c(OC)cc(C)c2[nH]ccc12` (single isomer, unassigned; (-)) [42-D b) (−), (−)-2-(1-(5-methoxy-7-methyl-1H-indol-4-yl)-1-(methylamino)ethyl)-1H-benzo[d]imidazole-5-carbonitrile]: 5 nM; for `Cc1cc(C)c2[nH]ccc2c1C(O)c1nc2cc(C#N)ccc2[nH]1` (single isomer, unassigned; (-)) [64-C b) (−), (−)-2-((5,7-dimethyl-1H-indol-4-yl)(hydroxy)methyl)benzo[d]imidazole-5-carbonitrile]: 60 nM; for `Cc1cc(CO)c(C(O)c2nc3cc(C#N)ccc3[nH]2)c2cc[nH]c12` (single isomer, unassigned; (-)) [65-D b) (−), (−)-2-(hydroxy(5-(hydroxymethyl)-7-methyl-1H-indol-4-yl)methyl)-1H-benzo[d]imidazole-5-carbonitrile]: 270 nM. As for `CCOCc1cc(C)c2[nH]ccc2c1C(O)c1nc2cc(C#N)ccc2[nH]1` (single isomer, unassigned; (-)) [66-D b) (−), (−)-2-((5-(ethoxymethyl)-7-methyl-1H-indol-4-yl)(hydroxy)methyl)-1H-benzo[d]imidazole-5-carbonitrile], the half-maximal inhibitory concentration (IC50) was 5110 nM.

In the case of `CCc1cc(C)c2[nH]ccc2c1C(O)c1nc2cc(C#N)ccc2[nH]1` (single isomer, unassigned; (-)) [67-A b) (−), (−)-2-((5-ethyl-7-methyl-1H-indol-4-yl)(hydroxy)methyl)-1H-benzo[d]imidazole-5-carbonitrile], the IC50 is 160 nM. Consider `Cc1cc(CC(C)C)c(C(O)c2nc3cc(C#N)ccc3[nH]2)c2cc[nH]c12` (single isomer, unassigned; (-)) [67-C b) (−), (−)-2-(hydroxy(5-(isobutyl)-7-methyl-1H-indol-4-yl)methyl)-1H-benzo[d]imidazole-5-carbonitrile], for which the half-inhibitory concentration (IC50) is 6750 nM. With `Cc1cc(C(C)C)c(C(O)c2nc3cc(C#N)ccc3[nH]2)c2cc[nH]c12` (single isomer, unassigned; (-)) [67-D b) (−), (−)-2-(hydroxy(5-isopropyl-7-methyl-1H-indol-4-yl)methyl)-1H-benzo[d]imidazole-5-carbonitrile], the IC50 came out at 60 nM. As for `Cc1cc(Cl)c(C(O)c2nc3cc(C#N)ccc3[nH]2)c2cc[nH]c12` (single isomer, unassigned; (-)) [67-E b) (−), (−)-2-((5-chloro-7-methyl-1H-indol-4-yl)(hydroxy)methyl)-1H-benzo[d]imidazole-5-carbonitrile], the IC50 is 1180 nM. In the case of `Cc1cc(C)c2[nH]ccc2c1C(O)c1nc2c(C)c(C#N)ccc2[nH]1` (single isomer, unassigned; (-)) [67-G b) (−), (−)-2-((5,7-dimethyl-1H-indol-4-yl)(hydroxy)methyl)-4-methyl-1H-benzo[d]imidazole-5-carbonitrile], the half-maximal inhibitory concentration (IC50) came out at 570 nM. Consider `CCc1cc(C)c2[nH]ccc2c1C(OC)c1nc2cc(C#N)ccc2[nH]1` (single isomer, unassigned; (-)) [70-D b) (−), (−)-2-((5-ethyl-7-methyl-1H-indol-4-yl)(methoxy)methyl)-1H-benzo[d]imidazole-5-carbonitrile], for which the IC50 is 480 nM.
